# Results reported in patent US10597388B2, “Pyridazinone herbicides” (FMC CORPORATION, priority 2014, dated 2020).
# What was measured:
# Format in all cases: in vivo
# [1] = test system: oilseed rape (Brassica napus); assay: Test D controlled growth environment herbicide test, pre- and postemergence
# In short: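 Rating is visual, 0–100 scale (100 = complete control), made against untreated plants 14–21 d after treatment in controlled growth conditions. Postemergence sprays went onto 1- to 4-leaf plants in peat medium; preemergence sprays onto silt loam after sowing; formulation included a surfactant.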
# [2] = test system: nutsedge, yellow (yellow nutsedge, Cyperus esculentus); assay: Test E greenhouse herbicide test, pre- and postemergence; details: Preemergence
# In short: (§1)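 Seeds were sown in silt loam and sprayed preemergence with compound in a non-phytotoxic solvent mix containing surfactant; for postemergence, plants at 2 to 18 cm (1- to 4-leaf stage) in peat-based potting medium were sprayed with the same formulation. After 14 to 21 d in a greenhouse, injury was rated visually against controls (0–100).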
# [3] = test system: crabgrass, Brazilian (Brazilian crabgrass, Digitaria horizontalis); assay: as above
# In short: as §1
# [4] = test system: foxtail, green (green foxtail, Setaria viridis); assay: as above; details: Preemergence
# In short: as §1
# [5] = test system: beggarticks (hairy beggarticks, Bidens pilosa); assay: as above
# In short: as §1
# [6] = test system: waterhemp (common waterhemp, Amaranthus rudis); assay: as above
# In short: as §1
# [7] = test system: johnsongrass (Sorghum halepense); assay: as above; details: Preemergence
# In short: as §1
# kochia (Kochia scoparia) = assay: as above
# In short: as §1
# [8] = test system: field bindweed (Convolvulus arvensis); assay: as above
# In short: as §1
# [9] = test system: Italian ryegrass (Lolium multiflorum); assay: as above
# In short: as §1
# [10] = Postemergence, 31 g ai/ha, scale 0 to 100 (0 no effect, 100 complete control)
# [11] = Postemergence, 125 g ai/ha, visual rating on scale 0 (no effect) to 100 (complete control), 14 to 21 d
# [12] = Postemergence, 250 g ai/ha, scale 0 to 100 (0 no effect, 100 complete control)
# [13] = Preemergence, 125 g ai/ha, scale 0 to 100 (0 no effect, 100 complete control)
# [14] = Preemergence, 250 g ai/ha, scale 0 to 100 (0 no effect, 100 complete control)
# [15] = postemergence, 62 g ai/ha, scale 0 to 100, 0 no effect, 100 complete control
# [16] = 125 g ai/ha, scale 0 to 100 (0 no effect, 100 complete control)
# [17] = 16 g ai/ha, scale 0 to 100, 0 no effect, 100 complete control
# [18] = 31 g ai/ha, scale 0 to 100, 0 no effect, 100 complete control
# [19] = 62 g ai/ha, Postemergence, scale 0 to 100 (0 no effect, 100 complete control)
# [20] = 62 g ai/ha, Preemergence, scale 0 to 100 (0 no effect, 100 complete control)
# [21] = 125 g ai/ha, Postemergence, scale 0 to 100 (0 no effect, 100 complete control)
# [22] = 125 g ai/ha, Preemergence, scale 0 to 100 (0 no effect, 100 complete control)
# [23] = Postemergence, 16 g ai/ha, visual, scale 0 no effect to 100 complete control
# [24] = Postemergence, 31 g ai/ha, visual, scale 0 no effect to 100 complete control
# [25] = Preemergence, 16 g ai/ha, scale 0 to 100, 0 no effect, 100 complete control
# [26] = Preemergence, 31 g ai/ha, scale 0 to 100, 0 no effect, 100 complete control
# [27] = 62 g ai/ha, scale 0 to 100 (0 no effect, 100 complete control)
# [28] = 250 g ai/ha, visual, scale 0 no effect to 100 complete control
# [29] = Preemergence, 125 g ai/ha, visual, scale 0 no effect to 100 complete control
# [30] = Preemergence, 250 g ai/ha, visual, scale 0 no effect to 100 complete control
# [31] = 125 g ai/ha, visual, scale 0 no effect to 100 complete control
compound,measurement,setting,value
CCC(=O)Oc1c(C)nn(C)c(=O)c1-c1c(C)sc2ccc(Cl)cc12 [Compound 109],Oilseed Rape plant response rating,[1]; [10],65
same,"Plant response rating, Oilseed Rape",[1]; [11],75
same,"Plant response rating, Oilseed Rape",[1]; [12],85
same,"Plant response rating (scale of 0 to 100), Oilseed Rape","[1]; Preemergence, 31 g ai/ha",15
same,"Plant response rating (scale of 0 to 100), Oilseed Rape","[1]; Preemergence, 62 g ai/ha",40
same,"Plant response rating, Oilseed Rape",[1]; [13],75
same,"Plant response rating, Oilseed Rape",[1]; [14],85
same,"Plant response rating, Oilseed Rape",[1]; [15],70
same,"Plant response rating, Nutsedge, Yellow",[2]; [16],40
same,"Plant response rating, Nutsedge, Yellow",[2]; [17],0
same,"Plant response rating, Nutsedge, Yellow",[2]; [18],0
same,"Plant response rating, Crabgrass, Brazil",[3]; [19],30
same,"Plant response rating, Crabgrass, Brazil",[3]; [20],40
same,"Plant response rating, Crabgrass, Brazil",[3]; [21],50
same,"Plant response rating, Crabgrass, Brazil",[3]; [22],70
same,"Plant response rating, Crabgrass, Brazil",[3]; [23],10
same,"Plant response rating, Crabgrass, Brazil",[3]; [24],40
same,"Plant response rating, Crabgrass, Brazil",[3]; [25],70
same,"Plant response rating, Crabgrass, Brazil",[3]; [26],60
same,"Plant response rating, Foxtail, Green",[4]; [27],40
same,"Plant response rating, Foxtail, Green",[4]; [16],60
same,"Plant response rating, Foxtail, Green",[4]; [17],0
same,"Plant response rating, Foxtail, Green",[4]; [18],0
same,"Plant response rating, Beggarticks",[5]; [19],85
same,"Plant response rating, Beggarticks",[5]; [20],100
same,"Plant response rating, Beggarticks",[5]; [21],100
same,"Plant response rating, Beggarticks",[5]; [22],100
same,"Plant response rating, Beggarticks",[5]; [23],80
same,"Plant response rating, Beggarticks",[5]; [24],90
same,"Plant response rating, Beggarticks",[5]; [25],20
same,"Plant response rating, Beggarticks",[5]; [26],75
same,"Plant response rating, Waterhemp",[6]; [21],90
same,"Plant response rating, Waterhemp",[6]; [22],98
same,"Plant response rating, Waterhemp",[6]; [23],60
same,"Plant response rating, Waterhemp",[6]; [24],75
same,"Plant response rating, Waterhemp",[6]; [25],0
same,"Plant response rating, Waterhemp",[6]; [26],0
same,"Plant response rating, Johnsongrass",[7]; [16],40
same,"Plant response rating, Johnsongrass",[7]; [17],0
same,"Plant response rating, Johnsongrass",[7]; [18],0
same,"Plant response rating, Kochia",kochia (Kochia scoparia); [19],95
same,"Plant response rating, Kochia",kochia (Kochia scoparia); [21],100
same,"Plant response rating, Kochia",kochia (Kochia scoparia); [22],100
same,"Plant response rating, Kochia",kochia (Kochia scoparia); [23],80
same,"Plant response rating, Kochia",kochia (Kochia scoparia); [24],95
same,"Plant response rating, Kochia",kochia (Kochia scoparia); [25],0
same,"Plant response rating, Kochia",kochia (Kochia scoparia); [26],10
same,"Plant response rating, Field Bindweed",[8]; [19],95
same,"Plant response rating, Field Bindweed",[8]; [20],40
same,"Plant response rating, Field Bindweed",[8]; [21],90
same,"Plant response rating, Field Bindweed",[8]; [22],80
same,"Plant response rating, Field Bindweed",[8]; [23],75
same,"Plant response rating, Field Bindweed",[8]; [24],80
same,"Plant response rating, Field Bindweed",[8]; [25],0
same,"Plant response rating, Field Bindweed",[8]; [26],0
same,"Plant response rating, Ryegrass, Italian",[9]; [19],90
same,"Plant response rating, Ryegrass, Italian",[9]; [21],85
same,"Plant response rating, Ryegrass, Italian",[9]; [22],98
same,"Plant response rating, Ryegrass, Italian",[9]; [23],50
same,"Plant response rating, Ryegrass, Italian",[9]; [24],75
same,"Plant response rating, Ryegrass, Italian",[9]; [25],60
same,"Plant response rating, Ryegrass, Italian",[9]; [26],75
CC(=O)Oc1c(C)nn(C)c(=O)c1-c1c(C)sc2c(C)cc(C)cc12 [Compound 27],Oilseed Rape plant response rating,[1]; [10],55
same,"Plant response rating, Oilseed Rape",[1]; [11],70
same,"Plant response rating, Oilseed Rape",[1]; [12],85
same,"Plant response rating (scale of 0 to 100), Oilseed Rape","[1]; Preemergence, 31 g ai/ha",0
same,"Plant response rating, Oilseed Rape","[1]; Preemergence, 62 g ai/ha, scale 0 to 100 (0 no effect, 100 complete control)",0
same,"Plant response rating, Oilseed Rape",[1]; [13],0
same,"Plant response rating, Oilseed Rape",[1]; [14],35
same,"Plant response rating, Oilseed Rape",[1]; [15],65
same,"Plant response rating, Nutsedge, Yellow",[2]; [27],15
same,"Plant response rating, Nutsedge, Yellow",[2]; [16],98
same,"Plant response rating, Nutsedge, Yellow",[2]; [18],10
same,"Plant response rating, Nutsedge, Yellow",[2]; [28],80
same,"Plant response rating, Crabgrass, Brazil",[3]; [20],70
same,"Plant response rating, Crabgrass, Brazil",[3]; [26],70
same,"Plant response rating, Crabgrass, Brazil",[3]; [29],95
same,"Plant response rating, Crabgrass, Brazil",[3]; [30],95
same,"Plant response rating, Foxtail, Green",[4]; [27],100
same,"Plant response rating, Foxtail, Green",[4]; [18],75
same,"Plant response rating, Foxtail, Green",[4]; [31],100
same,"Plant response rating, Foxtail, Green",[4]; [28],100
same,"Plant response rating, Beggarticks",[5]; [20],100
same,"Plant response rating, Beggarticks",[5]; [26],90
same,"Plant response rating, Beggarticks",[5]; [29],100
same,"Plant response rating, Beggarticks",[5]; [30],100
same,"Plant response rating, Waterhemp",[6]; [20],90
same,"Plant response rating, Waterhemp",[6]; [22],85
same,"Plant response rating, Waterhemp",[6]; [26],95
same,"Plant response rating, Waterhemp",[6]; [30],95
same,"Plant response rating, Johnsongrass",[7]; [27],75
same,"Plant response rating, Johnsongrass",[7]; [18],70
same,"Plant response rating, Johnsongrass",[7]; [31],75
same,"Plant response rating, Johnsongrass",[7]; [28],70
same,"Plant response rating, Kochia",kochia (Kochia scoparia); [20],25
same,"Plant response rating, Kochia",kochia (Kochia scoparia); [26],0
same,"Plant response rating, Kochia",kochia (Kochia scoparia); [29],80
same,"Plant response rating, Kochia",kochia (Kochia scoparia); [30],100
same,"Plant response rating, Field Bindweed",[8]; [20],40
same,"Plant response rating, Field Bindweed",[8]; [26],0
same,"Plant response rating, Field Bindweed",[8]; [29],70
same,"Plant response rating, Field Bindweed",[8]; [30],70
same,"Plant response rating, Ryegrass, Italian",[9]; [20],95
same,"Plant response rating, Ryegrass, Italian",[9]; [22],100
same,"Plant response rating, Ryegrass, Italian",[9]; [26],80
same,"Plant response rating, Ryegrass, Italian",[9]; [30],100
